Assay results from patent publication US20260193647A1, “MIRNA-BASED CANCER THERAPY WITH A TUMOR-NAVIGATING PEPTIDE” (The Board of Trustees of the Universities of Illinois, priority 2022, published 2026).

Legend:
[1] = tested on: miR-20a; experiment: Circulating miR-20a in sera of treated mice; assay type: in vivo; details: early-phase treatment group, 1 mg/kg; vs tumor-free mice (P=0.78)
Text: (§1) Micro RNA enriched fraction was extracted using the miRNeasy Mini Kit (Qiagen, Catalog #217004) following the manufacturer's instructions. Stem loop real-time qPCR was used to analyze miRNA expression. We designed miR-20a stem loop RT primers and amplification primers according to a previously described method 79. cDNA was synthesized from extracted RNA using unique stem loop RT primers. The sequence of the stem loop primer for miR-20a was 5′-[…]-3′ (SEQ ID NO:7). Reverse transcriptase reactions contained the following reagents: 10 ng of RNA sample, 60 nM stem-loop RT primer, 1×RT buffer, 0.25 mM dNTP, and 4 U/μl reverse transcriptase. Reactions were performed by incubation at 16° C. for 30 min, 42° C. for 30 min and 85° C. for 5 min. Real-time PCR (7300 Real time PCR Systems, Applied Biosystems, CA) was performed using the specific forward primer for miR-20a (5′-[…]-3′ (SEQ ID NO:8)) and a universal reverse primer (5′-GTGCA GGGTC CGAGGT-3′ (SEQ ID NO:9)). The 20-μl PCR mixture included 1×SYBR Premix (Invitrogen), 2 μl of RT products and each forward and reverse primer at 10 nM. Reactions were performed by incubation in a 96-well plate at 95° C. for 30 sec, followed by 35 cycles of 95° C. for 30 sec and 60° C. for 30 sec. U6 was used as an internal control to normalize the level of target miRNAs. […]

[2] = tested on: SJ-GBM2 spheroids; experiment: SJ-GBM2 tumor spheroids: uptake and structure; assay type: cell-based, human
Experimental: (§2) SJ-GBM2 cells, CHLA-200 cells and astrocytes (2×10^4 cells/well) were cultured on glass slides placed in 24-well plates. After overnight culture, the cells were washed with PBS and incubated with 20 μM Alexa Fluor 568-labeled p28 peptide in medium (5% FBS and without phenol red) for 2 hr at 37° C. Cells were fixed with 2% formalin for 10 min. After washing, slides were prepared and mounted with Vectashield with DAPI (Vector Laboratories, Catalog #94010). Slides were examined by an LSM 710 confocal laser scanning microscope (Zeiss). Images were processed using ZEN software (ZEISS ZEN Lite). As for a GSC marker, the slides were first incubated with Alexa Fluor 568-labeled AmiR20-p28 for 2 hr at 37° C. Cells were fixed with 2% formalin for 10 min. After washing, slides were incubated with blocking buffer for 1 hr at room temperature, followed by consecutive staining with anti-CD133 antibody (1:500, R&D Systems FAB11331G). Slides were washed and mounted with Vectashield containing DAPI. Slides were examined by the LSM 710 confocal laser scanning microscope.
SJ-GBM2 spheroids were formed by self-aggregation of cells in the bottoms of non-adherent round bottom 96-well plates (Thermo Scientific, #174925 96U). Suspensions of 10,000 cells in 100 μl volumes of media were pipetted into individual wells and allowed to form cell-cell connections over the course of 3 days.

[3] = tested on: LN-229 cells; experiment: CCK-8 cell viability assay, LN-229; assay type: cell-based, human; details: 24 hr
Experimental: (§3) Cell viability was evaluated by a CCK-8 assay (Dojindo, Japan). Cells were seeded at a density of 4,000 cells per well in 100 μl of growth medium in 96-well plates and grown overnight. Then, the cells were exposed to antisense miR-20a alone, p28 alone or negative control or AmiR20-p28 over a range of concentrations and incubated for 24 hr. According to the manufacturer's instructions, 10 μl of CCK-8 solution was added to each well, followed by incubation for 1 hr at 37° C. The absorbance at 450 nm was determined by a multiplate reader.
(§4) Cell viability (%)=Abs(sample)−Abs(blank)/Abs(no treatment)−Abs(blank)×100

[4] = tested on: SJ-GBM2 cells, CHLA-200 cells and astrocytes; experiment: Cellular entry by confocal microscopy; assay type: cell-based, human; details: 20 μM Alexa Fluor labeled, 2 hr, 37° C.; pGBM cells vs normal astrocytes
Experimental: p28 or AmiR20-p28 were dissolved in PBS mixed with Alexa Fluor 568 dye (Invitrogen) at a 1:2 peptide/dye ratio 37. Sodium bicarbonate (pH 8.5) was added and incubated at 4° C. with continuous stirring. Alexa Fluor 568 labeled p28 and AmiR20-p28 were dialyzed against cold-PBS using Slide-A-Lyzer Dialysis Cassettes (Pierce Biotechnology). Similarly, p28 was labeled with ICG as described previously.
as §2, with “Slides were examined by the LSM 710 confocal laser scanning microscope.” left out

[5] = tested on: miR-20a; experiment: miR-20a expression levels by stem loop qPCR in treated cells; assay type: cell-based, human; details: 10 nM, 24 hr
Text: Micro RNA enriched fraction was extracted using the miRNeasy Mini Kit (Qiagen, Catalog #217004) following the manufacturer's instructions. Stem loop real-time qPCR was used to analyze miRNA expression. We designed miR-20a stem loop RT primers and amplification primers according to a previously described method 79. cDNA was synthesized from extracted RNA using unique stem loop RT primers. The sequence of the stem loop primer for miR-20a was 5′-[…]-3′ (SEQ ID NO:7). Reverse transcriptase reactions contained the following reagents: 10 ng of RNA sample, 60 nM stem-loop RT primer, 1×RT buffer, 0.25 mM dNTP, and 4 U/μl reverse transcriptase. Reactions were performed by incubation at 16° C. for 30 min, 42° C. for 30 min and 85° C. for 5 min. Real-time PCR (7300 Real time PCR Systems, Applied Biosystems, CA) was performed using the specific forward primer for miR-20a (5′-[…]-3′ (SEQ ID NO:8)) and a universal reverse primer (5′-GTGCA GGGTC CGAGGT-3′ (SEQ ID NO:9)). The 20-μl PCR mixture included 1×SYBR Premix (Invitrogen), 2 μl of RT products and each forward and reverse primer at 10 nM. Reactions were performed by incubation in a 96-well plate at 95° C. for 30 sec, followed by 35 cycles of 95° C. for 30 sec and 60° C. for 30 sec. U6 was used as an internal control to normalize the level of target miRNAs. The results were verified by performing PCR using M13 modified forward and reverse primers specific to stem loop sequence. The PCR products were visualized in 2% agarose gels and DNA-sequence was confirmed. Human tumor and serum samples were obtained from patients who had signed informed consent and the institutional review board approval was obtained in Pediatric Brain Tumor Consortium (PBTC-041) participating sites.

[6] = tested on: SJ-GBM2 cells; details: read-out: IC50 (cell viability); 24 hr
Experimental: as §3, §4

[7] = tested on: miR-20a; experiment: miR-20a levels in resected tumor tissues of treated mice; assay type: in vivo; details: 1 mg/kg 3 times a week for one week; vs PBS-treated mice
Text: as §1, with “NO:9)).” for “NO:9)). The 20-μl PCR mixture included 1×SYBR Premix (Invitrogen), 2 μl of RT products and each forward and reverse primer at 10 nM. Reactions were performed by incubation in a 96-well plate at 95° C. for 30 sec, followed by 35 cycles of 95° C. for 30 sec and 60° C. for 30 sec. U6 was used as an internal control to normalize the level of target miRNAs.”
A quantitative analysis using human-specific Alu sequence (hAlu) was performed on samples collected from the isolated brain tissues. […] The amount of hAlu and mGAPDH DNA in the tissue was calculated by comparison with a standard curve, and the calculated amount of hAlu DNA was normalized against the relative quantity of mGAPDH. […]

[8] = tested on: MDA-MB231, SKOV3, Mia-Paca2, Colon 205 and DU145 cells; experiment: CCK-8 cell viability assay, other solid tumor cells; assay type: cell-based, human; details: 10 nM
Experimental: as §3

AmiR20-p28: BBB-permeable tumor-navigating CPP p28 (Cys-p28) covalently linked to 2′ O-methyl antisense miR-20a (5′-maleimide)
serum miR-20a level [1]: not significantly different from the basal level in the tumor-free mice
structure of the SJ-GBM2 spheroids ([2]; 10 nM, 24 and 48 h): started to disintegrate at 24 h
uptake in tumor spheroids ([2]; 20 μM Alexa Fluor-labeled, 2 hr, 37° C.): penetrated the tumor spheroids
IC50 [3]: 170 nM
effect on cell viability ([3]; compared to pGBM): less extensive
cellular entry (confocal images) [4]: preferential entry
miR-20a expression levels reduced by ([5]; CHLA-200 cells): 96%
miR-20a expression levels reduced by ([5]; LN-229 cells): 84%
miR-20a expression levels reduced by ([5]; SJ-GBM2 cells): 94%
miR-20a levels ([5]; normal human astrocytes): not significantly altered
IC50 [6]: 8 nM
miR-20a levels in tumor tissues [7]: significant decrease in miR-20a levels
effect on the viability [8]: little effect on the viability
